# Like-named read-outs stand apart in the source and are kept apart here.
# Tests used:
# Zucker rats = assay: Liver triglyceride contents in Zucker rats; format: in vivo; details: Rattus norvegicus, 336 h, read-out: Triglyceride reducing rate (%); for inhibition in vivo at 1 mg/kg: 1 mg/kg once a day for 2 weeks
# Method: Measurement of Liver Triglyceride Contents in Zucker Rats
# To Zucker rats, a vehicle (0.5% MC), a compound of the present invention or fenofibrate (Sigma) was administered once a day for 2 weeks. The livers were isolated on the next day of the final administration, and amounts of triglyceride in the livers were determined. Triglyceride was extracted by adding 5 ml of a mixture of hexane and isopropanol (2:1, V/V) to 100 mg of liver, homogenizing the liver using Polytron homogenizer, then sufficiently stirring and centrifuging the homogenate at 2000 g for 10 minutes at room temperature. The amount of triglyceride in the solution layer was measured.
# [1] = test system: 3T3-L1 precursor adipocytes; assay: Triglyceride accumulation in adipocytes; format: cell-based; details: Mus musculus, 100 nM compound, 4 to 5 days culture, relative to 10 μM rosiglitazone taken as 100%, read-out: Amount of accumulated triglyceride (%)
# Method: (§1) Test for Uptake of Glucose By Adipocytes and Test for Triglyceride Accumulation in Adipocytes
# Further, 3T3-L1 precursor adipocytes were cultured for 4 to 5 days in the presence of a test compound, and then the amount of triglyceride in the cells was measured according to the method of Shibata T et al. (Eur. J. Pharmacol., 364 (2–3), 211–219, 1999). The amount of accumulated triglyceride provided after the treatment with 100 nM of each compound was measured, and represented as a relative value based on the amount of accumulated triglyceride provided after the treatment with 10 μM rosiglitazone, which was taken as 100%.
# db/db mice = assay: Hypoglycemic action and triglyceride-decreasing action in db/db mice; format: in vivo; details: Mus musculus, 360 h; for inhibition in vivo at 10 mg/kg: 10 mg/kg oral once a day for 2 weeks; for inhibition in vivo at 1 mg/kg: 1 mg/kg oral once a day for 2 weeks; for inhibition in vivo at 3 mg/kg: 3 mg/kg oral once a day for 2 weeks
# Method: Test for Measuring Hypoglycemic Action and Triglyceride-Decreasing Action in db/db Mice
# Each of test compounds was administered once a day for 2 weeks to db/db mice genetically presenting pathological conditions of obesity, hyperglycemia, and hyperlipidemia. Blood was collected from the mice immediately before the start of administration of a test sample or a vehicle on the first day. Plasma glucose levels and triglyceride levels were measured, and the mice were divided into groups so that average glucose levels and triglyceride levels gave no significant value among the groups. All the test samples were suspended in a 0.5% methylcellulose (MC) solution and orally administered. For a vehicle-administered control group, a 0.5% MC solution was orally administered. Blood samples were collected from the mice on the 15th day, and plasma glucose levels and triglyceride levels were measured. A hypoglycemic rate and triglyceride-reducing rate were calculated by using the following equations.
# [2] = test system: hamsters fed with high cholesterol diet; assay: Total plasma cholesterol and non-HDL cholesterol reducing action in hamster fed high cholesterol diet; format: in vivo; details: Mesocricetus auratus, 192 h, hamsters on high cholesterol diet, 10 mg/kg oral once a day for one week, plasma on 8th day
# Method: Test for Measuring Total Plasma Cholesterol Reducing Action and Non-HDL Cholesterol (VLDL Cholesterol+LDL Cholesterol) Reducing Action in Hamster
# A test compound (10 mg/kg) was administered once a day for one week to hamsters fed with high cholesterol diet (CE-2 (Clea Japan)+1% cholesterol+10% coconut oil) for five days. The plasma cholesterol level and the plasma HDL cholesterol level were measured immediately before the start of the administration of the test sample or vehicle on the 1st day, and the hamsters were divided into groups so that the groups gave no significant value of initial levels of the both measurements. Each of the test samples was dissolved in a 0.5% methylcellulose (MC) solution and orally administered. A 0.5% methylcellulose (MC) solution was orally administered to the hamsters as a vehicle control group. A blood sample was collected on the 8th day, and the plasma cholesterol level and the plasma HDL cholesterol level were measured. The total cholesterol reducing rate was obtained by using the following equation. [formula]
# Further, non-HDL cholesterol level (LDL cholesterol level+VLDL cholesterol level) was calculated as (Total cholesterol level−HDL cholesterol level), and the reducing rate thereof was calculated by using the following equation. [formula]
# [3] = test system: 3T3-L1 precursor adipocytes; assay: Uptake of glucose by adipocytes ([3H]-2-deoxy-glucose uptake); format: cell-based; details: Mus musculus, 100 nM compound, 4 to 5 days culture, 100 nM insulin stimulation, relative to 10 μM rosiglitazone taken as 100%, read-out: Amount of glucose uptake (%)
# Method: as §1
# According to the method of Mukherjee et al. (Mol. Endocrinol, 14, 1425–1433, 2000), a glucose uptake experiment was performed by using cultured cells. 3T3-L1 precursor adipocytes were cultured for 4 to 5 days in the presence of a test compound, and then stimulated with 100 nM insulin, and then the amount of [^3H]-2-deoxy-glucose (2DG) uptake by the cells was measured. The amount of glucose uptake provided after the treatment with 100 nM of each compound was measured, and represented as a relative value based on the amount of glucose uptake provided after the treatment with 10 μM rosiglitazone, which was taken as 100%.
# [4] = plasma glucose on 15th day vs vehicle, read-out: Hypoglycemic rate (%)
# [5] = plasma triglyceride on 15th day vs vehicle, read-out: Triglyceride reducing rate (%)
# [6] = non-HDL = total cholesterol - HDL cholesterol, read-out: Non-HDL cholesterol reducing rate (%)
# [7] = read-out: Total cholesterol reducing rate (%)
SMILES,inhibition in vivo at 10 mg/kg (Zucker rats; 10 mg/kg once a day for 2 weeks),Emax at 0.1 µM [1],inhibition in vivo at 10 mg/kg (db/db mice; [4]),inhibition in vivo at 10 mg/kg (db/db mice; [5]),"inhibition in vivo at 10 mg/kg [2, 6]","inhibition in vivo at 10 mg/kg [2, 7]",Emax at 0.1 µM [3],inhibition in vivo at 1 mg/kg (Zucker rats),inhibition in vivo at 1 mg/kg (db/db mice; [4]),inhibition in vivo at 1 mg/kg (db/db mice; [5]),inhibition in vivo at 3 mg/kg (db/db mice; [4]),inhibition in vivo at 3 mg/kg (db/db mice; [5]),inhibition in vivo at 100 mg/kg (Zucker rats; 100 mg/kg once a day for 2 weeks)
"CCCCCCCN(CCOc1ccc(CC(OCC)C(=O)O)cc1)C(=O)Nc1ccc(F)cc1F (centres unmarked) [Example 2, 3-(4-{2-[3-(2,4-difluorophenyl)-1-heptylureido]ethoxy}phenyl)-2-ethoxypropionic acid]",19%,90%,34%,53%,29%,30%,95%,,,,,,
"CCCCCCCN(CCOc1ccc(CC(OCC)C(=O)O)cc1)C(=O)OC (centres unmarked) [Example 56, 2-ethoxy-3-{4-[2-(N-heptyl-N-methoxycarbonylamino)ethoxy]phenyl}propionic acid]",,85%,,,40%,39%,90%,42%,26%,49%,,,
"CCCCCCCN(CCOc1ccc(CC(OCC)C(=O)O)cc1)C(=O)OCc1ccccc1 (centres unmarked) [Example 57, 3-{4-[2-(N-benzyloxycarbonyl-N-heptylamino)ethoxy]phenyl}-2-ethoxypropionic acid]",,75%,,,43%,41%,80%,41%,,,35%,46%,
"CCCCCCCN(CCOc1ccc(CC(OCC)C(=O)O)cc1)C(=O)OCCC (centres unmarked) [Example 59, 2-ethoxy-3-{4-[2-(N-heptyl-N-propoxycarbonylamino)ethoxy]phenyl}propionic acid]",,77%,,,35%,37%,88%,40%,,,18%,21%,
"CCCCCCCN(CCOc1ccc(CC(OCC)C(=O)O)cc1)C(=O)OC(C)C (centres unmarked) [Example 66, 2-ethoxy-3-{4-[2-(N-heptyl-N-isopropyloxycarbonylamino)ethoxy]phenyl}propionic acid]",,80%,,,42%,40%,95%,44%,32%,57%,,,
"C#CCOC(=O)N(CCCCCCC)CCOc1ccc(CC(OCC)C(=O)O)cc1 (centres unmarked) [Example 67, 2-ethoxy-3-(4-{2-[N-heptyl-N-(2-propynyloxycarbonyl)amino]ethoxy}phenyl)propionic acid]",,92%,,,32%,34%,91%,47%,17%,26%,,,
"CCCCCCCN(CCOc1ccc(CC(OCC)C(=O)O)cc1)C(=O)OCC(C)C (centres unmarked) [Example 71, 2-ethoxy-3-{4-[2-(N-heptyl-N-isobutyloxycarbonylamino)ethoxy]phenyl}propionic acid]",,85%,,,10%,12%,83%,28%,28%,40%,,,
"C=CCCOC(=O)N(CCCCCCC)CCOc1ccc(CC(OCC)C(=O)O)cc1 (centres unmarked) [Example 73, 3-(4-{2-[N-(3-butenyloxycarbonyl)-N-heptylamino]ethoxy}phenyl)-2-ethoxypropionic acid]",,96%,,,45%,45%,99%,34%,,,30%,43%,
"CCCCCCCN(CCOc1ccc(CC(OCC)C(=O)O)cc1)C(=O)OCC (centres unmarked) [Example 75, 2-ethoxy-3-{4-[2-(N-ethoxycarbonyl-N-heptylamino)ethoxy]phenyl}propionic acid]",,98%,,,46%,48%,98%,32%,,,38%,32%,
"CCOC(Cc1ccc(OCCN(CCOc2ccccc2)C(=O)OC(C)C)cc1)C(=O)O (centres unmarked) [Example 92, 2-ethoxy-3-(4-{2-[N-isopropoxycarbonyl-N-(2-phenoxyethyl)amino]ethoxy}phenyl)propionic acid]",,92%,,,10%,8%,90%,2%,,,4%,12%,
"CCCCCCCN(CCOc1ccc(CC(OCC)C(=O)OCC)cc1)C(=O)OCC(F)(F)F (centres unmarked) [Example 96, 2-ethoxy-3-(4-{2-[N-heptyl-N-(2,2,2-trifluoroethoxycarbonyl)amino]ethoxy}phenyl)propionic acid ethyl ester]",,80%,,,23%,24%,85%,39%,,,38%,31%,
"CCCCOCCN(CCOc1ccc(CC(OCC)C(=O)O)cc1)C(=O)OCCC (centres unmarked) [Example 115, 3-(4-{2-[N-(2-butoxyethyl)-N-propoxycarbonylamino]ethoxy}phenyl)-2-ethoxypropionic acid]",,95%,,,17%,17%,98%,42%,,,11%,18%,
"CCCCCCCN(CCOc1ccc(CC(OC(C)C)C(=O)O)cc1)C(=O)OC (centres unmarked) [Example 118, 3-{4-[2-(N-heptyl-N-methoxycarbonylamino)ethoxy]phenyl}-2-isopropoxypropionic acid]",,55%,,,50%,45%,60%,47%,42%,51%,,,
"CC(C)OC(=O)C(C)(C)Oc1ccc(C(=O)c2ccc(Cl)cc2)cc1 [Fenofibrate, fenofibrate, reference compound]",,,,,,,,,,,,,22%

# Reference: US7015345B2, “Propionic acid derivatives” (Asahi Kasei Pharma Corporation, priority 2002, dated 2006)
